The values that follow come from patent US20090192192A1, “INHIBITORS OF BIOFILM FORMATION OF GRAM-POSITIVE AND GRAM-NEGATIVE BACTERIA” (priority 2007, published 2009).

One may read the inhibition as the drop in the measured response relative to a control, in per cent. Read a low inhibition as a response near the control.

What all share (type): cell-based
Assay [1] has as its system Staphylococcus epidermidis RP62A. Briefly: MBEC assay, biofilm formation of S. epidermidis RP62A. The settings on record: read-out: S. epidermidis RP62A log R (log reduction); for log reduction at 10 µM: compound concentration 10 μM; for log reduction at 100 µM: compound concentration 100 μM. Here is the method: (§1) The compound to be tested was dissolved in DMSO to obtain a concentration that was 100 times that of the final concentration required (1 mM for the 10 μM assay and 10 mM for the 100 μM assay). 1.5 μL of the above solution was placed into each well of a 96 well plate (final volume in each well=150 μL, final DMSO concentration of 1% (v/v)).
(§2) To grow the organism and form a biofilm, a cryogenic stock of the test organism (at −70° C.) was used. A first sub-culture was streaked out onto TSA (tryptic soy agar), upon which the plate was incubated at 35±2° C. for 24 hours and stored wrapped in parafilm at 4° C. afterwards. From this first sub-culture, a second sub-culture was streaked out onto TSA. The plate was incubated at 35±2° C. for 24 hours. The second sub-culture was used within 24 hours starting from the time it was first removed from incubation. Using the second sub-culture an inoculum in 3 mL sterile water that matches a 0.5 McFarland Standard (1.5×10^8 cells per mL) was created in a glass test tube using a sterile cotton swab. 2.2 mL of this solution was diluted in 22 mL 100% TSB (tryptic soy broth) medium to a cell density of approximately 6.0×10^5 cells per mL. The diluted organism was inverted 3-5 times to achieve uniform mixing of the organism. One sample (100 μl) of the diluted organism was used for an inoculum check by serially diluting and spot plating on TSA.
(§3) To prepare a challenge plate, […] of the diluted organism was added to each well of a 96 well plate except the sterility control wells. The test compounds were added to the wells to make up final concentrations of 10 μM and […] (1.5 μL/well) in the designated location in the test plate. 128.5 μL of 100% universal neutralizer (1% Tween 80 in Cation Adjusted Mueller Hinton Broth, CAMHB) was placed in each of the wells. 130 μL of media was added to the growth control wells. 128.5 μL of media+1.5 μL of DMSO were added to a second set of growth control wells. 150 μL of media was added to the sterility controls. Each sample was run in triplicate. The plate was covered by a lid with a peg per well and wrapped in parafilm and placed on a shaker in a humidified incubator (GeneVac) at 35±+2° C. for 24 hours set at 110 rpm.
(§4) Rinse plate(s) of 0.9% saline (200 μL per well) were prepared in a sterile 96 well microtitre plate. Lid-associated pegs were rinsed in 0.9% saline for approximately 1-2 minutes. The peg lid was transferred to the recovery media (1.0% Tween 80 in CAMHB) then sonicated for 30 minutes to dislodge surviving biofilm. Following sonication, 100 μL from each well of the 96 well plate was placed into the first 12 wells of the first row of a 96 well microtiter plate. 180 μl of 0.9% sterile saline was placed in the remaining rows. A serial dilution (10^0-10^7) was prepared by moving 20 μl down each of the 8 rows. 20 μl from each well was removed and spot plated on a prepared TSA. In the remaining recovery plate, 100 μl of fresh growth media (1.0% Tween 80 in CAMHB) was placed in each well to replace the amount removed. The recovery plate was covered with a regular lid and incubated at 35±2° C. for 24 hours and read visually to confirm antimicrobial activity of the test compounds.
(§5) The compounds of the present disclosure have been tested regarding their efficiency to inhibit biofilm formation of Staphylococcus aureus U of C#18 (MRSA), Staphylococcus aureus 456 (MRSA), Staphylococcus epidermidis RP62A, and Pseudomonas aeruginosa PAO1.

The subject of assay [2] is Staphylococcus aureus 456 (MRSA). As to the kind of experiment: MBEC assay, biofilm formation of S. aureus 456 (MRSA). The settings on record: read-out: S. aureus 456 (MRSA) log R (log reduction); for log reduction at 10 µM: compound concentration 10 μM; for log reduction at 100 µM: compound concentration 100 μM. Here is the method:
as §1, §2, §3, §4, §5

Assay [3] relates to Pseudomonas aeruginosa PAO1. Briefly: MBEC assay, biofilm formation of P. aeruginosa PAO1. The settings on record: for IC50: biofilm formation, read-out: P. aeruginosa PAO1 inhibitory concentration IC50; for inhibition at 100 µM: compound concentration 100 μM. The method, boiled down: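 Peg-lid biofilms were grown 24 h at 35±2 °C, 110 rpm, from inoculum diluted to ~6.0×10^5 cells per mL in TSB, with compound at 10 μM or 100 μM final (1% DMSO) in 1% Tween 80/CAMHB. Pegs were rinsed, then sonicated 30 min into recovery medium; survivors were spot-plated, and recovery plates were read visually after 24 h; triplicates.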

In assay [4] the test system is Staphylococcus aureus U of C#18 (MRSA). As to the kind of experiment: MBEC assay, biofilm formation of S. aureus U of C #18 (MRSA). The settings on record: read-out: S. aureus U of C #18 (MRSA) log R (log reduction); for log reduction at 10 µM: compound concentration 10 μM; for log reduction at 100 µM: compound concentration 100 μM. Here is the method:
as §1, §2, §3, §4, §5

The subject of assay [5] is Staphylococcus aureus 398 (MRSA). Briefly: MBEC assay, biofilm formation of S. aureus 398 (MRSA). Here is the method: as §1
as §2, with “2.2 mL of this solution was diluted in 22 mL 100% TSB (tryptic soy broth) medium to a cell density of approximately 6.0×10^5 cells per mL. The diluted organism was inverted 3-5 times to achieve uniform mixing of the organism. One sample (100 μl) of the diluted organism was used for an inoculum check by serially diluting and spot plating on TSA.” left out
Rinse plate(s) of 0.9% saline (200 μL per well) were prepared in a sterile 96 well microtitre plate. […] The recovery plate was covered with a regular lid and incubated at 35±2° C. for 24 hours and read visually to confirm antimicrobial activity of the test compounds. […]

Structures are written as SMILES.

With `CCCCCCCCCOCC(=O)Nc1ccnn1C` [Example 1, N-(1-methylpyrazol-5-yl)-2-(nonyloxy)acetamide], the log reduction at 10 µM in assay [1] was found to be 0; in assay [2], 0.26; in assay [4], 0.4. Besides, the log reduction at 100 µM was found to be 0 in assay [1], 1.18 in assay [2] and 0.77 in assay [4]. In addition, the IC50 in assay [3] was determined as 27 µM.
Turning to `CCCCCCCCCCCC(=O)N1CCCC(C(=O)N(CC)CC)C1` (centres unmarked) [Example 2, 1-dodecanoyl-N,N-diethylpiperidine-3-carboxamide], the log reduction at 10 µM in assay [1] worked out at 0; in assay [2] it was 1.75; in assay [4] it was 1.56. The values for the log reduction at 100 µM in assay [1], in assay [2] and in assay [4] were 3.5, 5.79 and 5.38, respectively. In assay [3], the IC50 turned out to be 12 µM.
For `CCCCCCCCOCCC(=O)Nc1ccc(F)cc1C(F)(F)F` [Example 3, N-(4-fluoro-2-(trifluoromethyl)phenyl)-3-(octyloxy)propanamide], the log reduction at 10 µM in assay [1] is 0; in assay [2], 0.19; in assay [4], 0.11. Also, the figures for the log reduction at 100 µM in assay [1], in assay [2] and in assay [4] were 0, 0.49 and 0.19, respectively. Besides, the IC50 in assay [3] was found to be 19 µM.
Turning to `CCCCCCCCCC(=O)NC(=O)Nc1ccnn1CC` [Example 4, N-(1-ethylpyrazol-5-ylcarbamoyl)decanamide], the figures for the log reduction at 10 µM in assay [1], in assay [2] and in assay [4] were 0, 1.14 and 1.13, respectively. The values for the log reduction at 100 µM in assay [1], in assay [2] and in assay [4] were 0.78, 3.28 and 1.49, respectively. The IC50 in assay [3] stood at 11 µM.
For `CCCCCCCCOCCC(=O)N(C)c1ccc(F)cc1` [Example 5, N-(4-fluorophenyl)-N-methyl-3-(octyloxy)propanamide], the log reduction at 10 µM in assay [1] was 0; in assay [2] it was 0.54; in assay [4] it was -0.21. In addition, the log reduction at 100 µM is 0 in assay [1], 1.86 in assay [2] and 1.29 in assay [4]. Also, the IC50 in assay [3] was determined as 24 µM.
Take `CCCCCCCCCCNC(=O)N(C)c1ccccc1` [Example 6, 3-decyl-1-methyl-1-phenylurea]: the log reduction at 10 µM in assay [1] is 0; in assay [2] it was 1.61; in assay [4], 0.72. Further, the log reduction at 100 µM in assay [1] stood at 4.45; in assay [2], 2.3; in assay [4], 1.08. Moreover, the IC50 in assay [3] amounted to 9 µM.
In the case of `CCCCCCCCCCNC(=O)N(C)[C@@H](C)c1ccccc1` [Example 7, (S)-3-decyl-1-methyl-1-(1-phenylethyl)urea], the log reduction at 10 µM in assay [1] was 0; in assay [2], 0.53; in assay [4] it was 0.84. Further, the log reduction at 100 µM in assay [1] was 0; in assay [2] it was 1.26; in assay [4], 1.12. The IC50 in assay [3] came to 4 µM.
For `CCCCCCCCCCNC(=O)Nc1cc(C(C)(C)C)nn1C` [Example 8, 1-(3-tert-butyl-1-methylpyrazol-5-yl)-3-decylurea], the log reduction at 10 µM worked out at 0 in assay [1], 0.42 in assay [2] and 0.26 in assay [4]. Besides, the values for the log reduction at 100 µM in assay [1], in assay [2] and in assay [4] were 0, 1.04 and 0.8, respectively. Moreover, the IC50 in assay [3] was 3 µM.
Regarding `CCCCCCCCCCCC(=O)Nc1cc(C(C)(C)C)nn1C` [Example 9, N-(3-tert-butyl-1-methylpyrazol-5-yl)dodecanamide], the log reduction at 10 µM in assay [1] is 0; in assay [2], 0.65; in assay [4], 0.42. Moreover, the figures for the log reduction at 100 µM in assay [1], in assay [2] and in assay [4] were 0, 1.06 and 0.46, respectively. Moreover, in assay [3], the IC50 is 12 µM.
For `CCCCCCCCCCNC(=O)N1CCCC(C(=O)N(CC)CC)C1` (centres unmarked) [Example 10, N^1-decyl-N^3,N^3-diethylpiperidine-1,3-dicarboxamide], the log reduction at 10 µM in assay [1] stood at 1.33; in assay [4], 1.17. For the same compound, the log reduction at 100 µM was found to be 1.28 in assay [1] and 0.91 in assay [4]. Moreover, the “S. aureus 398 (MRSA) log R (log reduction)” value in assay [5] (compound concentration 10 μM) was 1.38; in assay [5] (compound concentration 100 μM) it was 2.54. Also, testing at 100 µM in assay [3] gave an inhibition of 84%.
Turning to `CCCCCCCCCCC(=O)N1CCCC(C(=O)N(CC)CC)C1` (centres unmarked) [Example 11, N,N-diethyl-1-undecanoylpiperidine-3-carboxamide], the results for the log reduction at 10 µM in assay [1] and in assay [4] were 0.77 and 0.84, respectively. In addition, the log reduction at 100 µM in assay [1] was found to be 1.48; in assay [4], 0.88. This compound also came in with an inhibition at 100 µM in assay [3] of 75%.
For `CCCCCCCCCCCCC(=O)N1CCCC(C(=O)N(CC)CC)C1` (centres unmarked) [Example 12, N,N-diethyl-1-tridecanoylpiperidine-3-carboxamide], in assay [1], the log reduction at 10 µM is 1.42 and the log reduction at 100 µM stood at 2.47. The compound also returned an inhibition at 100 µM in assay [3] of 85%. In assay [4], the log reduction at 10 µM was 0.08 and the log reduction at 100 µM turned out to be 1.57.
